According to patent US10660877B2 (BRISTOL-MYERS SQUIBB COMPANY, priority 2016, dated 2020):
Where two headings read alike, the source gives them in different places.

Experiments:
human TLR9 = human TLR9 (Homo sapiens (Human), UniProt Q9NR96); test: TLR9 inhibition reporter assay (HEK-Blue cells, SEAP reporter, ODN2006 stimulation);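 also: compounds tested over 0.05 nM to 50 µM, 22 h incubation, inhibition taken as SEAP signal drop from agonist plus DMSO wells toward a known inhibitor control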
human TLR7 = human TLR7 (Homo sapiens (Human), UniProt Q9NYK1); test: TLR7 inhibition reporter assay (HEK-Blue cells, SEAP reporter, gardiquimod stimulation); format: cell-based
human TLR8 = human TLR8 (Homo sapiens (Human), UniProt Q9NR97); test: TLR8 inhibition reporter assay (HEK-Blue cells, SEAP reporter, R848 stimulation);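 also: compounds tested from 0.05 nM to 50 µM, 22 h at 37 °C, SEAP measured with HEK-Blue Detection, inhibition relative to agonist plus DMSO versus a known inhibitor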
[1] = read-out: TLR9 IC50, HEK-Blue cells overexpressing human TLR9, ODN2006 5 nM
[2] = HEK-Blue cells overexpressing human TLR7, gardiquimod 7.5 μM
[3] = read-out: TLR8 IC50, HEK-Blue cells overexpressing human TLR8, R848 15.9 μM

Chain of human TLR8 (Q9NR97 27-1041): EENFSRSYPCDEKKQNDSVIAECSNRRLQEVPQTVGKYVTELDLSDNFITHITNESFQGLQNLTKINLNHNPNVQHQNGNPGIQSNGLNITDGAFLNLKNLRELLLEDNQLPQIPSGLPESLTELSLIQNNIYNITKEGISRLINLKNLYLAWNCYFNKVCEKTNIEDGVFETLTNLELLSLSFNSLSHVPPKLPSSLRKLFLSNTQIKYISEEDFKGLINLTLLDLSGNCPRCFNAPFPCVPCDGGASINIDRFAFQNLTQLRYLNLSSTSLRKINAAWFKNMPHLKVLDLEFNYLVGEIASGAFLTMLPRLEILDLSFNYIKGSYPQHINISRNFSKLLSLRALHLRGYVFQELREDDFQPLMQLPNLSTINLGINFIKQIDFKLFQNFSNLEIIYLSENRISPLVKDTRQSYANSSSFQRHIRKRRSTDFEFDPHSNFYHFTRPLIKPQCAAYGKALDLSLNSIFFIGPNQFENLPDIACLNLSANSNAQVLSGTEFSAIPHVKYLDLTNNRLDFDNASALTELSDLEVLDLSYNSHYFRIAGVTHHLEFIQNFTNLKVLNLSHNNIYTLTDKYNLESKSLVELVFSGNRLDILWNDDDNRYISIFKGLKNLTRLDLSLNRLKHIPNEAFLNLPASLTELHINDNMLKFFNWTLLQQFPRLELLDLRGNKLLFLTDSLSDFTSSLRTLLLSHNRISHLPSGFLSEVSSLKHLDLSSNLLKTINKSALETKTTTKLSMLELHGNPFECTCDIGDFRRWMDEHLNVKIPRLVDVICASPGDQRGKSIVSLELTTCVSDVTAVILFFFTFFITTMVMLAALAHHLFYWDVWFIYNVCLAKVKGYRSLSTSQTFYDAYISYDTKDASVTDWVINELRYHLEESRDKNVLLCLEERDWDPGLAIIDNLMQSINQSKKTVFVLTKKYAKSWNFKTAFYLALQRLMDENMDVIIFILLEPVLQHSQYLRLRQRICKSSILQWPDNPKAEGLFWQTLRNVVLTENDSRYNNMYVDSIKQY
Chain of human TLR9 (Q9NR96 26-1032): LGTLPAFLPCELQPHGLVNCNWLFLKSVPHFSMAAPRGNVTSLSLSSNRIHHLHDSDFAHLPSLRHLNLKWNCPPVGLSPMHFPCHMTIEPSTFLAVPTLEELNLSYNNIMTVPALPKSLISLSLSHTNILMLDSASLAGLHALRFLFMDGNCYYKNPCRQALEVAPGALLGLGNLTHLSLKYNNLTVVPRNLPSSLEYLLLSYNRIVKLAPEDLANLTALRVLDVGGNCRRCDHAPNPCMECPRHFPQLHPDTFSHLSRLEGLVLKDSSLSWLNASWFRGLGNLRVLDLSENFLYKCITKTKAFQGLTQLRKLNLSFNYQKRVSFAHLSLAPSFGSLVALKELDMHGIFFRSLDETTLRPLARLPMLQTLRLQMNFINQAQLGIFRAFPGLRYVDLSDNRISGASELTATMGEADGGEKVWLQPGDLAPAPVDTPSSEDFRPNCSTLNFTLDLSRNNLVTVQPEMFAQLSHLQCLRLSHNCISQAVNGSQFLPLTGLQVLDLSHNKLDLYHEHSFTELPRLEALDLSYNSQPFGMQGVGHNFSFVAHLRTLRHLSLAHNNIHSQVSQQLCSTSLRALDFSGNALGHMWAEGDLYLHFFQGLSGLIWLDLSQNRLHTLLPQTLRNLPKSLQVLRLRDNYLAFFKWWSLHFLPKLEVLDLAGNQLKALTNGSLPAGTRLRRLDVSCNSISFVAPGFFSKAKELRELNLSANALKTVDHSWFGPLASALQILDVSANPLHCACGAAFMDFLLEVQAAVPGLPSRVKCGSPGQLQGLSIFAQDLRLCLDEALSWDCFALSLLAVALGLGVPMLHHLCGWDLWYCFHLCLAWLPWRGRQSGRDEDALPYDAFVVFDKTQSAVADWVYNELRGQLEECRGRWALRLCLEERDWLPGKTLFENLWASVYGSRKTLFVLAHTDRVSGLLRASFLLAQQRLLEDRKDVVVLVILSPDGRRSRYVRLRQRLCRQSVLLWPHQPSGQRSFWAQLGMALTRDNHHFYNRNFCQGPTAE
Chain of human TLR7 (Q9NYK1 27-1049): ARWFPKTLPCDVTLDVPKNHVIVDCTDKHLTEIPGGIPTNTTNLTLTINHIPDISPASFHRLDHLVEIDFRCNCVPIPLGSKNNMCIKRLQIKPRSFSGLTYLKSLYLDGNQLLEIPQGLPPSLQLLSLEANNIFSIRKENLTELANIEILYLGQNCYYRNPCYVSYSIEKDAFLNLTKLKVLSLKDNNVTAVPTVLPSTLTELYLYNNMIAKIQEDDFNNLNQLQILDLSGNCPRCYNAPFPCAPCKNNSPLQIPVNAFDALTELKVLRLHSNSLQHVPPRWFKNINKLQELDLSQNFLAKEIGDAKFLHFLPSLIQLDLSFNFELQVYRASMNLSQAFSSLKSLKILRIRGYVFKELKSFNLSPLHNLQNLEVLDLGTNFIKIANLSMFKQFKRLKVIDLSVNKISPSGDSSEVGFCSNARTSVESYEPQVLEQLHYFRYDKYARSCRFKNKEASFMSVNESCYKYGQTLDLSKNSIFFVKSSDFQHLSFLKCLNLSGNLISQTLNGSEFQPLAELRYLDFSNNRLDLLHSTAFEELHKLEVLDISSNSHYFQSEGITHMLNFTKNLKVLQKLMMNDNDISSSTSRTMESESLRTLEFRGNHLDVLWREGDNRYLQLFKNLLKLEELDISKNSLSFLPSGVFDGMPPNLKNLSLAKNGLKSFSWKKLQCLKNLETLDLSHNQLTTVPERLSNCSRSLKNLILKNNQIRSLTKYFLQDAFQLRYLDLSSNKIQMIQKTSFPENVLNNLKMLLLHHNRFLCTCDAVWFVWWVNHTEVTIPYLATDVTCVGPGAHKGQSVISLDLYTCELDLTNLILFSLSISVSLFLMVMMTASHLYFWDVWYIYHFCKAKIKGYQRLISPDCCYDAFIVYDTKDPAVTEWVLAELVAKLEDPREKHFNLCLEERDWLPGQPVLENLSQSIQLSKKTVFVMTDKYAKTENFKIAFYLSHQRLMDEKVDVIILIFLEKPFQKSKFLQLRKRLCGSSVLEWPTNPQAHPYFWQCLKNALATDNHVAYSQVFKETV

In the case of `COc1ccc(CN2CCC(c3ccc4[nH]c(-c5cc(C)nc(C)c5)c(C(C)C)c4c3)CC2)cn1` [Example 424, 2-(2,6-dimethylpyridin-4-yl)-3-isopropyl-5-(1-((6-methoxypyridin-3-yl)methyl)piperidin-4-yl)-1H-indole], the IC50 (human TLR9; [1]) is reported as 0.255 µM, the IC50 (human TLR7; [2]) is reported as 0.0083 µM and the IC50 (human TLR8; [3]) is reported as 0.0072 µM.
Compound `Cc1cc(-c2[nH]c3ccc(C4CCN(C(=O)CN(C)CC#N)CC4)cc3c2C(C)C)cc(C)n1` [Example 423, 2-((2-(4-(2-(2,6-dimethylpyridin-4-yl)-3-isopropyl-1H-indol-5-yl)piperidin-1-yl)-2-oxoethyl)(methyl)amino)acetonitrile] has an IC50 (human TLR9; [1]) of 1.33 µM, an IC50 (human TLR7; [2]) of 0.0028 µM and an IC50 (human TLR8; [3]) of 0.0208 µM.
With `CCc1c(-c2cc(C)nc(C)c2)[nH]c2ccc(C3CCN(CC(=O)NC)CC3)cc12` [Example 527, 2-(4-(2-(2,6-dimethylpyridin-4-yl)-3-ethyl-1H-indol-5-yl)piperidin-1-yl)-N-methylacetamide] the IC50 (human TLR9; [1]) was 0.608 µM, the IC50 (human TLR7; [2]) was 0.0541 µM and the IC50 (human TLR8; [3]) was 0.0636 µM.
`COCCN(C)CC(=O)N1CCC(c2ccc3[nH]c(-c4cc(C)nc(C)c4)c(C(C)C)c3c2)CC1` [Example 148, 1-(4-(2-(2,6-dimethylpyridin-4-yl)-3-isopropyl-1H-indol-5-yl)piperidin-1-yl)-2-((2-methoxyethyl)(methyl)amino)ethan-1-one] gave an IC50 (human TLR9; [1]) of 0.9 µM, an IC50 (human TLR7; [2]) of 0.0022 µM and an IC50 (human TLR8; [3]) of 0.0098 µM.
For `Cc1cc(-c2[nH]c3ccc(C4CCN(C(=O)CCC5CCNCC5)CC4)cc3c2C(C)C)ccn1` [Example 568, 1-(4-(3-isopropyl-2-(2-methylpyridin-4-yl)-1H-indol-5-yl)piperidin-1-yl)-3-(piperidin-4-yl)propan-1-one], the IC50 (human TLR9; [1]) was 0.572 µM, the IC50 (human TLR7; [2]) was 0.0119 µM and the IC50 (human TLR8; [3]) was 0.0136 µM.
In the case of `Cc1cc(-c2[nH]c3ccc(C4CCN(C(=O)CNC5CCOCC5)CC4)cc3c2C(C)C)cc(C)n1` [Example 386, 1-(4-(2-(2,6-dimethylpyridin-4-yl)-3-isopropyl-1H-indol-5-yl)piperidin-1-yl)-2-((tetrahydro-2H-pyran-4-yl)amino)ethan-1-one], the IC50 (human TLR9; [1]) is reported as 0.28 µM, the IC50 (human TLR7; [2]) is reported as 0.0036 µM and the IC50 (human TLR8; [3]) is reported as 0.0177 µM.
Compound `CCc1c(-c2ccncc2)[nH]c2ccc(C3CCNCC3)cc12` [Example 60, 3-ethyl-5-(piperidin-4-yl)-2-(pyridin-4-yl)-1H-indole] has an IC50 (human TLR9; [1]) of 0.671 µM, an IC50 (human TLR7; [2]) of 0.0963 µM and an IC50 (human TLR8; [3]) of 0.0368 µM.
Compound `Cc1cc(-c2[nH]c3ccc(C4CCN(C(=O)Cn5ncnn5)CC4)cc3c2C(C)C)cc(C)n1` [Example 155, 1-(4-(2-(2,6-dimethylpyridin-4-yl)-3-isopropyl-1H-indol-5-yl)piperidin-1-yl)-2-(2H-tetrazol-2-yl) ethan-1-one] has an IC50 (human TLR9; [1]) of 26 µM, an IC50 (human TLR7; [2]) of 0.0027 µM and an IC50 (human TLR8; [3]) of 0.0317 µM.
Work on `Cc1cc(-c2[nH]c3ccc(C4CCN(C(=O)CC5CCOCC5)CC4)cc3c2C(C)C)cc(C)n1` [Example 106, 1-(4-(2-(2,6-dimethylpyridin-4-yl)-3-isopropyl-1H-indol-5-yl)piperidin-1-yl)-2-(tetrahydro-2H-pyran-4-yl)ethan-1-one] yielded an IC50 (human TLR9; [1]) of 30.6 µM, an IC50 (human TLR7; [2]) of 0.0082 µM and an IC50 (human TLR8; [3]) of 0.0674 µM.
`Cc1cc(-c2[nH]c3ccc(C4CCN(CC(O)C(F)(F)F)CC4)cc3c2C(C)C)cc(C)n1` (stereo not drawn) [Example 317, 3-(4-(2-(2,6-dimethylpyridin-4-yl)-3-isopropyl-1H-indol-5-yl)piperidin-1-yl)-1,1-trifluoropropan-2-ol] gave an IC50 (human TLR9; [1]) of 1.12 µM, an IC50 (human TLR7; [2]) of 0.0137 µM and an IC50 (human TLR8; [3]) of 0.0132 µM.
`Cc1cc(-c2[nH]c3ccc(C4CCN(CC5CCN(C)CC5)CC4)cc3c2C(C)C)ccn1` [Example 743, 3-isopropyl-5-(1-((1-methylpiperidin-4-yl)methyl)piperidin-4-yl)-2-(2-methylpyridin-4-yl)-1H-indole] gave an IC50 (human TLR9; [1]) of 0.282 µM, an IC50 (human TLR7; [2]) of 0.0065 µM and an IC50 (human TLR8; [3]) of 0.0051 µM.
`Cc1cc(-c2[nH]c3ccc(C4CCN(Cc5ccn[nH]5)CC4)cc3c2C(C)C)cc(C)n1` [Example 441, 5-(1-((1H-pyrazol-5-yl)methyl)piperidin-4-yl)-2-(2,6-dimethylpyridin-4-yl)-3-isopropyl-1H-indole] was tested, and the IC50 (human TLR9; [1]) was 0.303 µM, the IC50 (human TLR7; [2]) was 0.0016 µM and the IC50 (human TLR8; [3]) was 0.0017 µM.
`Cc1cc(-c2[nH]c3ccc(C4CCN(C(=O)CC#N)CC4)cc3c2C(C)C)ccn1` [Example 616, 3-(4-(3-isopropyl-2-(2-methylpyridin-4-yl)-1H-indol-5-yl)piperidin-1-yl)-3-oxopropanenitrile] gave an IC50 (human TLR9; [1]) of 32.9 µM, an IC50 (human TLR7; [2]) of 0.0337 µM and an IC50 (human TLR8; [3]) of 0.121 µM.
`Cc1cc(-c2[nH]c3ccc(C4CCN(C(=O)CN(CCO)Cc5ccccc5)CC4)cc3c2C(C)C)cc(C)n1` [Example 396, 2-(benzyl(2-hydroxyethyl)amino)-1-(4-(2-(2,6-dimethylpyridin-4-yl)-3-isopropyl-1H-indol-5-yl)piperidin-1-yl)ethan-1-one] showed an IC50 (human TLR9; [1]) of 1.6 µM, an IC50 (human TLR7; [2]) of 0.0044 µM and an IC50 (human TLR8; [3]) of 0.0552 µM.
`Cc1cc(-c2[nH]c3ccc(C4CCN(C5CCN(C(C)C)CC5)CC4)cc3c2C)c(C)cn1` [Example 814, 2-(2,5-dimethylpyridin-4-yl)-5-(1′-isopropyl-[1,4′-bipiperidin]-4-yl)-3-methyl-1H-indole] gave an IC50 (human TLR9; read-out: TLR9 IC50, HEK-Blue cells, ODN2006 5 nM) of 0.101 µM, an IC50 (human TLR7; HEK-Blue cells, gardiquimod 7.5 μM) of 0.0507 µM and an IC50 (human TLR8; read-out: TLR8 IC50, HEK-Blue cells, R848 15.9 μM) of 0.0024 µM.
In the case of `FC(F)Cc1c(-c2ccnc(Cl)c2)[nH]c2ccc(C3CCNCC3)cc12` [Example 494, 2-(2-chloropyridin-4-yl)-3-(2,2-difluoroethyl)-5-(piperidin-4-yl)-1H-indole], the IC50 (human TLR9; [1]) is reported as 2.04 µM, the IC50 (human TLR7; [2]) is reported as 0.0365 µM and the IC50 (human TLR8; [3]) is reported as 0.0664 µM.
`Cc1cc(-c2[nH]c3ccc(C4CCN(C(=O)CN(C)C5CCS(=O)(=O)C5)CC4)cc3c2C(C)C)cc(C)n1` (stereo not drawn) [Example 147, 1-(4-(2-(2,6-dimethylpyridin-4-yl)-3-isopropyl-1H-indol-5-yl)piperidin-1-yl)-2-((1,1-dioxidotetrahydrothiophen-3-yl)(methyl)amino)ethan-1-one] gave an IC50 (human TLR9; [1]) of 3.84 µM, an IC50 (human TLR7; [2]) of 0.0067 µM and an IC50 (human TLR8; [3]) of 0.0423 µM.
For `Cc1cc(-c2[nH]c3ccc(C4CCN(C(=O)CCn5ccnc5C)CC4)cc3c2C(C)C)cc(C)n1` [Example 124, 1-(4-(2-(2,6-dimethylpyridin-4-yl)-3-isopropyl-1H-indol-5-yl)piperidin-1-yl)-3-(2-methyl-1H-imidazol-1-yl)propan-1-one], the IC50 (human TLR9; [1]) was 0.394 µM, the IC50 (human TLR7; [2]) was 0.0019 µM and the IC50 (human TLR8; [3]) was 0.0101 µM.
In the case of `CCC(C)NCC(=O)N1CCC(c2ccc3[nH]c(-c4cc(C)nc(C)c4)c(C(C)C)c3c2)CC1` (stereo not drawn) [Example 392, 2-(sec-butylamino)-1-(4-(2-(2,6-dimethylpyridin-4-yl)-3-isopropyl-1H-indol-5-yl)piperidin-1-yl)ethan-1-one], the IC50 (human TLR9; [1]) is reported as 0.253 µM, the IC50 (human TLR7; [2]) is reported as 0.0032 µM and the IC50 (human TLR8; [3]) is reported as 0.0104 µM.
`Cc1nccc(-c2[nH]c3ccc(C4CCNCC4)cc3c2C(C)C)c1Cl` [Example 44, 2-(3-chloro-2-methylpyridin-4-yl)-3-isopropyl-5-(piperidin-4-yl)-1H-indole] was tested, and the IC50 (human TLR9; [1]) was 1.64 µM, the IC50 (human TLR7; [2]) was 0.0139 µM and the IC50 (human TLR8; [3]) was 0.0144 µM.
In the case of `Cc1cc(-c2[nH]c3ccc(C4CCN(CC(=O)N5CCCCC5)CC4)cc3c2C(C)C)cc(C)n1` [Example 241, 2-(4-(2-(2,6-dimethylpyridin-4-yl)-3-isopropyl-1H-indol-5-yl)piperidin-1-yl)-1-(piperidin-1-yl)ethan-1-one], the IC50 (human TLR9; [1]) is reported as 0.444 µM, the IC50 (human TLR7; [2]) is reported as 0.0064 µM and the IC50 (human TLR8; [3]) is reported as 0.0107 µM.
Work on `CCc1c(-c2ccnc(N(C)C)c2)[nH]c2ccc(C3CCN(C4CCN(CC(C)C)CC4)CC3)cc12` [Example 767, 4-(3-ethyl-5-(1′-isobutyl-[1,4′-bipiperidin]-4-yl)-1H-indol-2-yl)-N,N-dimethylpyridin-2-amine] yielded an IC50 (human TLR9; [1]) of 0.098 µM, an IC50 (human TLR7; [2]) of 3.75 µM and an IC50 (human TLR8; [3]) of 1.23 µM.
`Cc1cc(-c2[nH]c3ccc(C4CCN(C(=O)CN5CCC(F)(F)C5)CC4)cc3c2C(C)C)cc(C)n1` [Example 341, 2-(3,3-difluoropyrrolidin-1-yl)-1-(4-(2-(2,6-dimethylpyridin-4-yl)-3-isopropyl-1H-indol-5-yl)piperidin-1-yl)ethan-1-one] showed an IC50 (human TLR9; [1]) of 25.4 µM, an IC50 (human TLR7; [2]) of 0.0227 µM and an IC50 (human TLR8; [3]) of 0.211 µM.
Compound `Cc1cc(-c2[nH]c3ccc(C4CCNCC4)cc3c2C(C)C)cc(C)[n+]1[O-]` [Example 56, 2-(2,6-dimethyl-1-(l1-oxidanyl)-1l4-pyridin-4-yl)-3-isopropyl-5-(piperidin-4-yl)-1H-indole] has an IC50 (human TLR9; [1]) of 0.804 µM, an IC50 (human TLR7; [2]) of 0.0046 µM and an IC50 (human TLR8; [3]) of 0.0239 µM.
Work on `Cc1cnc(F)cc1-c1[nH]c2ccc(C3CCNCC3)cc2c1C(C)C` [Example 28, 2-(2-fluoro-5-methylpyridin-4-yl)-3-isopropyl-5-(piperidin-4-yl)-1H-indole] yielded an IC50 (human TLR9; [1]) of 3.43 µM, an IC50 (human TLR7; [2]) of 0.0072 µM and an IC50 (human TLR8; [3]) of 0.0339 µM.
In the case of `CNCC(=O)N1CCC(c2ccc3[nH]c(-c4cc(C)ncc4F)c(C(C)C)c3c2)CC1` [Example 621, 1-(4-(2-(5-fluoro-2-methylpyridin-4-yl)-3-isopropyl-1H-indol-5-yl)piperidin-1-yl)-2-(methylamino)ethan-1-one], the IC50 (human TLR9; [1]) is reported as 1.59 µM, the IC50 (human TLR7; [2]) is reported as 0.0024 µM and the IC50 (human TLR8; [3]) is reported as 0.005 µM.
With `Cc1cc(-c2[nH]c3ccc(C4CCN(C(=O)CN(C)C)CC4)cc3c2C(C)C)cc(C2CC2)n1` [Example 506, 1-(4-(2-(2-cyclopropyl-6-methylpyridin-4-yl)-3-isopropyl-1H-indol-5-yl)piperidin-1-yl)-2-(dimethylamino)ethan-1-one] the IC50 (human TLR9; [1]) was 1.1 µM, the IC50 (human TLR7; [2]) was 0.0111 µM and the IC50 (human TLR8; [3]) was 0.0427 µM.
In the case of `Cc1cc(-c2[nH]c3ccc(C4CCN(CC(=O)N5CCC(C)CC5)CC4)cc3c2C(C)C)cc(C)n1` [Example 269, 2-(4-(2-(2,6-dimethylpyridin-4-yl)-3-isopropyl-1H-indol-5-yl)piperidin-1-yl)-1-(4-methylpiperidin-1-yl)ethan-1-one], the IC50 (human TLR9; [1]) is reported as 0.227 µM, the IC50 (human TLR7; [2]) is reported as 0.0037 µM and the IC50 (human TLR8; [3]) is reported as 0.0198 µM.
